Laboratory results published in patent publication US20260000656A1, “ANTIFUNGAL AGENTS WITH ENHANCED ACTIVITY IN ACIDIC PH” (Scynexis, Inc., priority 2017, published 2026).
Like-named read-outs stand apart in the source and are kept apart here.

Tests used:
C. albicans isolates = test: Broth microdilution susceptibility (CLSI M27-A3) at different medium pH; type: cell-based, Candida albicans; settings: Candida albicans, 24 h, pH 7, C. albicans MRL 34449, pH 7.0, 24 hours; read-out: MIC (100% inhibition)
Procedure: (§1) Ten strains each of C. glabrata and C. albicans vaginal isolates were tested. The strains were obtained from recent clinical trial patients with vulvovaginal candidiasis (VVC) prior to treatment. Candida strains were obtained from the Mycology Reference Library (MRL) at Case Western Reserve University School of Medicine, Ohio, United States.
(§2) Susceptibility testing was performed using a broth microdilution method, according to CLSI M27-A3 guidelines (CLSI. 2008. Reference Method for Broth Dilution Antifungal Susceptibility Testing of Yeasts; Approved Standard—Third Edition. Clinical and Laboratory Standards Institute, CLSI document M27-A3). Antifungals and concentrations tested were SCY-078 and micafungin (both at concentrations within the range of 0.015 to 8 μg/ml) and fluconazole (at concentrations within the range of 0.125 to 64 μg/ml). A 0.1-ml C. albicans and C. glabrata inoculum of 0.5-2.5×10^3 blastospores/ml in RPMI 1640 medium was added to each microdilution well. ATCC strains of Candida parapsilosis and Candida krusei QC isolates were also included concurrently to ensure quality control. Antifungal susceptibility testing was carried out for each isolate in RPMI 1640 at pH 7 (to mimic RPMI medium used in testing the susceptibility of yeast by the CLSI M-27A3 document), pH 5.7, and pH 4.5 (to mimic the pH of the vaginal cavity) by adjusting the pH of the media using NaOH or HCl. […] Agents Chemother., 43: 1383-1386 (1999).
(§3) […] SCY-078 powder was manufactured by Avista, Laboratories, NC. Micafungin and fluconazole were sourced from LGM Pharma.

C. glabrata isolates = test: as above; type: cell-based, Candida glabrata; settings: for MIC50 / MIC90 / MIC: Nakaseomyces glabratus, 24 h; for MIC50: read-out: MIC50; for MIC90: read-out: MIC90
Procedure: as §1, §2, §3

[1] = pH 4.5, 50% inhibition, pH 4.5, 24 h, 10 vaginal isolates
[2] = pH 4.5, 100% inhibition, pH 4.5, 24 hours, 10 isolates
[3] = pH 5.72, 50% inhibition, pH 5.72, 24 h, 10 vaginal isolates
[4] = pH 5.72, 100% inhibition, pH 5.72, 24 hours, 10 isolates
[5] = pH 7, 50% inhibition, pH 7.0, 24 h, 10 vaginal isolates
[6] = pH 7, 100% inhibition, pH 7.0, 24 hours, 10 isolates

CC(C)[C@@H](C)[C@@]1(C)CC[C@]2(C)[C@H]3CC[C@@H]4[C@@]5(COC[C@]4(C)[C@@H](OC[C@](C)(N)C(C)(C)C)[C@H](n4ncnc4-c4ccncc4)C5)C3=CC[C@@]2(C)[C@@H]1C(=O)O [SCY-078]
0.063 µg/mL: MIC50 (C. glabrata isolates; [1]) | MIC90 (C. glabrata isolates; [1]) | MIC (C. glabrata isolates; pH 4.5, C. glabrata MRL 32075, pH 4.5, 24 hours, read-out: MIC (50% inhibition)) | MIC (C. glabrata isolates; pH 4.5, C. glabrata MRL 32232, pH 4.5, 24 hours, read-out: MIC (50% inhibition)) | MIC (C. glabrata isolates; pH 4.5, C. glabrata MRL 32626, pH 4.5, 24 hours, read-out: MIC (50% inhibition)) | MIC (C. glabrata isolates; pH 4.5, C. glabrata MRL 32993, pH 4.5, 24 hours, read-out: MIC (100% inhibition)) | MIC (C. glabrata isolates; pH 4.5, C. glabrata MRL 33204, pH 4.5, 24 hours, read-out: MIC (100% inhibition)) | MIC (C. glabrata isolates; pH 4.5, C. glabrata MRL 33960, pH 4.5, 24 hours, read-out: MIC (100% inhibition)) | MIC (C. glabrata isolates; pH 4.5, C. glabrata MRL 33961, pH 4.5, 24 hours, read-out: MIC (50% inhibition)) | MIC (C. glabrata isolates; pH 4.5, C. glabrata MRL 33961, pH 4.5, 24 hours, read-out: MIC (100% inhibition)) | MIC (C. glabrata isolates; pH 4.5, C. glabrata MRL 34339, pH 4.5, 24 hours, read-out: MIC (50% inhibition)) | MIC (C. glabrata isolates; pH 4.5, C. glabrata MRL 34407, pH 4.5, 24 hours, read-out: MIC (50% inhibition)) | MIC (C. glabrata isolates; pH 4.5, C. glabrata MRL 34576, pH 4.5, 24 hours, read-out: MIC (50% inhibition))
0.031 µg/mL: MIC (C. glabrata isolates; pH 4.5, C. glabrata MRL 32993, pH 4.5, 24 hours, read-out: MIC (50% inhibition)) | MIC (C. glabrata isolates; pH 4.5, C. glabrata MRL 33204, pH 4.5, 24 hours, read-out: MIC (50% inhibition)) | MIC (C. glabrata isolates; pH 4.5, C. glabrata MRL 33960, pH 4.5, 24 hours, read-out: MIC (50% inhibition))
16 fold: reduction in MIC50 at pH 4.5 compared to the MIC50 at pH 7.0 (C. glabrata isolates; C. glabrata isolates)
2 µg/mL: MIC90 (C. glabrata isolates; [6]) | MIC (C. glabrata isolates; pH 7, C. glabrata MRL 34407, pH 7.0, 24 hours, read-out: MIC (100% inhibition)) | MIC (C. glabrata isolates; pH 7, C. glabrata MRL 34576, pH 7.0, 24 hours, read-out: MIC (100% inhibition))
1 to 2 µg/mL: MIC range (C. glabrata isolates; 100% inhibition, pH 7.0, 24 hours, 10 isolates)
0.031 to 0.063 µg/mL: MIC range (C. glabrata isolates; 50% inhibition, pH 4.5, 24 h, 10 vaginal isolates)
0.5 µg/mL: MIC (C. albicans isolates) | MIC range (C. glabrata isolates; 50% inhibition, pH 5.72, 24 h, 10 vaginal isolates) | MIC50 (C. glabrata isolates; [3]) | MIC90 (C. glabrata isolates; [3]) | MIC (C. glabrata isolates; pH 5.72, C. glabrata MRL 32075, pH 5.72, 24 hours, read-out: MIC (50% inhibition)) | MIC (C. glabrata isolates; pH 5.72, C. glabrata MRL 32232, pH 5.72, 24 hours, read-out: MIC (50% inhibition)) | MIC (C. glabrata isolates; pH 5.72, C. glabrata MRL 32626, pH 5.72, 24 hours, read-out: MIC (50% inhibition)) | MIC (C. glabrata isolates; pH 5.72, C. glabrata MRL 32993, pH 5.72, 24 hours, read-out: MIC (50% inhibition)) | MIC (C. glabrata isolates; pH 5.72, C. glabrata MRL 33204, pH 5.72, 24 hours, read-out: MIC (50% inhibition)) | MIC (C. glabrata isolates; pH 5.72, C. glabrata MRL 33960, pH 5.72, 24 hours, read-out: MIC (50% inhibition)) | MIC (C. glabrata isolates; pH 5.72, C. glabrata MRL 33961, pH 5.72, 24 hours, read-out: MIC (50% inhibition)) | MIC (C. glabrata isolates; pH 5.72, C. glabrata MRL 34339, pH 5.72, 24 hours, read-out: MIC (50% inhibition)) | MIC (C. glabrata isolates; pH 5.72, C. glabrata MRL 34407, pH 5.72, 24 hours, read-out: MIC (50% inhibition)) | MIC (C. glabrata isolates; pH 5.72, C. glabrata MRL 34576, pH 5.72, 24 hours, read-out: MIC (50% inhibition)) | MIC (C. glabrata isolates; pH 7, C. glabrata MRL 32075, pH 7.0, 24 hours, read-out: MIC (50% inhibition)) | MIC (C. glabrata isolates; pH 7, C. glabrata MRL 32626, pH 7.0, 24 hours, read-out: MIC (50% inhibition)) | MIC (C. glabrata isolates; pH 7, C. glabrata MRL 32993, pH 7.0, 24 hours, read-out: MIC (50% inhibition)) | MIC (C. glabrata isolates; pH 7, C. glabrata MRL 33960, pH 7.0, 24 hours, read-out: MIC (50% inhibition))
0.5 to 1 µg/mL: MIC range (C. glabrata isolates; 50% inhibition, pH 7.0, 24 h, 10 vaginal isolates)
0.063 to 0.125 µg/mL: MIC range (C. glabrata isolates; 100% inhibition, pH 4.5, 24 hours, 10 isolates)
0.125 µg/mL: MIC50 (C. glabrata isolates; [2]) | MIC90 (C. glabrata isolates; [2]) | MIC (C. glabrata isolates; pH 4.5, C. glabrata MRL 32075, pH 4.5, 24 hours, read-out: MIC (100% inhibition)) | MIC (C. glabrata isolates; pH 4.5, C. glabrata MRL 32232, pH 4.5, 24 hours, read-out: MIC (100% inhibition)) | MIC (C. glabrata isolates; pH 4.5, C. glabrata MRL 32626, pH 4.5, 24 hours, read-out: MIC (100% inhibition)) | MIC (C. glabrata isolates; pH 4.5, C. glabrata MRL 34339, pH 4.5, 24 hours, read-out: MIC (100% inhibition)) | MIC (C. glabrata isolates; pH 4.5, C. glabrata MRL 34407, pH 4.5, 24 hours, read-out: MIC (100% inhibition)) | MIC (C. glabrata isolates; pH 4.5, C. glabrata MRL 34576, pH 4.5, 24 hours, read-out: MIC (100% inhibition))
1 µg/mL: MIC range (C. glabrata isolates; 100% inhibition, pH 5.72, 24 hours, 10 isolates) | MIC50 (C. glabrata isolates; [4]) | MIC90 (C. glabrata isolates; [4]) | MIC (C. glabrata isolates; pH 5.72, C. glabrata MRL 32075, pH 5.72, 24 hours, read-out: MIC (100% inhibition)) | MIC (C. glabrata isolates; pH 5.72, C. glabrata MRL 32232, pH 5.72, 24 hours, read-out: MIC (100% inhibition)) | MIC (C. glabrata isolates; pH 5.72, C. glabrata MRL 32626, pH 5.72, 24 hours, read-out: MIC (100% inhibition)) | MIC (C. glabrata isolates; pH 5.72, C. glabrata MRL 32993, pH 5.72, 24 hours, read-out: MIC (100% inhibition)) | MIC (C. glabrata isolates; pH 5.72, C. glabrata MRL 33204, pH 5.72, 24 hours, read-out: MIC (100% inhibition)) | MIC (C. glabrata isolates; pH 5.72, C. glabrata MRL 33960, pH 5.72, 24 hours, read-out: MIC (100% inhibition)) | MIC (C. glabrata isolates; pH 5.72, C. glabrata MRL 33961, pH 5.72, 24 hours, read-out: MIC (100% inhibition)) | MIC (C. glabrata isolates; pH 5.72, C. glabrata MRL 34339, pH 5.72, 24 hours, read-out: MIC (100% inhibition)) | MIC (C. glabrata isolates; pH 5.72, C. glabrata MRL 34407, pH 5.72, 24 hours, read-out: MIC (100% inhibition)) | MIC (C. glabrata isolates; pH 5.72, C. glabrata MRL 34576, pH 5.72, 24 hours, read-out: MIC (100% inhibition)) | MIC50 (C. glabrata isolates; [5]) | MIC90 (C. glabrata isolates; [5]) | MIC50 (C. glabrata isolates; [6]) | MIC (C. glabrata isolates; pH 7, C. glabrata MRL 32075, pH 7.0, 24 hours, read-out: MIC (100% inhibition)) | MIC (C. glabrata isolates; pH 7, C. glabrata MRL 32232, pH 7.0, 24 hours, read-out: MIC (50% inhibition)) | MIC (C. glabrata isolates; pH 7, C. glabrata MRL 32232, pH 7.0, 24 hours, read-out: MIC (100% inhibition)) | MIC (C. glabrata isolates; pH 7, C. glabrata MRL 32626, pH 7.0, 24 hours, read-out: MIC (100% inhibition)) | MIC (C. glabrata isolates; pH 7, C. glabrata MRL 32993, pH 7.0, 24 hours, read-out: MIC (100% inhibition)) | MIC (C. glabrata isolates; pH 7, C. glabrata MRL 33204, pH 7.0, 24 hours, read-out: MIC (50% inhibition)) | MIC (C. glabrata isolates; pH 7, C. glabrata MRL 33204, pH 7.0, 24 hours, read-out: MIC (100% inhibition)) | MIC (C. glabrata isolates; pH 7, C. glabrata MRL 33960, pH 7.0, 24 hours, read-out: MIC (100% inhibition)) | MIC (C. glabrata isolates; pH 7, C. glabrata MRL 33961, pH 7.0, 24 hours, read-out: MIC (50% inhibition)) | MIC (C. glabrata isolates; pH 7, C. glabrata MRL 33961, pH 7.0, 24 hours, read-out: MIC (100% inhibition)) | MIC (C. glabrata isolates; pH 7, C. glabrata MRL 34339, pH 7.0, 24 hours, read-out: MIC (50% inhibition)) | MIC (C. glabrata isolates; pH 7, C. glabrata MRL 34339, pH 7.0, 24 hours, read-out: MIC (100% inhibition)) | MIC (C. glabrata isolates; pH 7, C. glabrata MRL 34407, pH 7.0, 24 hours, read-out: MIC (50% inhibition)) | MIC (C. glabrata isolates; pH 7, C. glabrata MRL 34576, pH 7.0, 24 hours, read-out: MIC (50% inhibition))
